We go through 14 molecules from paper PMC6928761, “Trypanocidal Mechanism of Action and in silico Studies of p-Coumaric Acid Derivatives” (International Journal of Molecular Sciences, 2019).

Where two headings read alike, the source gives them in different places.

For experiment [1], the system named is T. cruzi (strain Y) epimastigotes. Kind of experiment: Effect on T. cruzi epimastigote forms (24 h, Neubauer chamber count). The class given is cell-based, Trypanosoma cruzi. To be noted: for trypanocidal activity (in words): epimastigote forms. The protocol: (§1) The trypanocidal activity of the p-coumaric derivatives (1–12) were evaluated against epimastigotes and trypomastigote forms of T. cruzi (strain Y) at 24 h of incubation and in host LLC-MK2 cells at 24 h of exposure to different concentrations: 100; 50; 25; 12.5; 6.25; 3.12; and 1.56 μg/mL. In the MTT assay it was possible to calculate the IC50 of the tested substances through cell viability, which was calculated in relation to the negative control, whose absorbance was considered 100%.
Preparation of T. cruzi epimastigote was performed by cultivation in 96-well Y-staining plates at a density of 10^6 cells/mL, and using liver tryptose infusion with 10% fetal bovine serum (SFB) supplementation, and 1% antibiotic. They were then treated with p-coumaric derivatives. The grown parasites presenting inhibition were collected and quantified in a Neubauer chamber after incubation at 28 °C for 24 h. To determine relative viability, parasites treated only with sterile PBS medium were used as negative controls (viability of 100%), and experiments were performed in triplicate.

The next experiment deals with LLC-MK2 cells. Kind of experiment: Cytotoxicity evaluation (mammalian cells), MTT assay. In kind it is cell-based. To be noted: Macaca mulatta, read-out: LLC-MK2 IC50. The protocol: as §1
For cell viability we used a standard MTT assay. LLC-MK2 cells were inoculated in DMEM medium, treated with different concentrations of p-coumaric derivatives and incubated at 37 °C for 24 h. MTT (Amresco, Solon, Ohio, USA; 5 mg/mL) was inserted and the cells were incubated for 4 h.
In the next procedure, formazan was solubilized in 10% sodium dodecyl sulfate (SDS; Vetec, São Paulo, Brazil). For cell viability analysis, a plate reader (Biochrom® Asys Expert Plus, CAMBRIGE, UK) with a wavelength of 570 nm was used. While in relative cell viability cells were calculated, which were treated with sterile PBS in triplicate for negative controls and experiments.
On the technique in general: Tetrazolium dyes change colour on reduction, which living cells bring about.

The subject of experiment [2] is T. cruzi (strain Y) trypomastigotes. The experiment can be described thus: Effect on T. cruzi trypomastigote forms (24 h). In kind it is cell-based. To be noted: Trypanosoma cruzi, read-out: Y strain (Tripomastigotes) IC50. The protocol:
as §1
Acquisition of T. cruzi trypomastigotes was by infection of LLCMK2 cells using trypomastigotes in T-25/75cm^2 containers at 37 °C with 5% CO2 atmosphere in DMEM (Vitrocell, São Paulo, Brazil) and supplementation of 1% antibiotics and 2% SFB for 24 h. Then the trypomastigotes were plated and treated with p-coumaric acid derivatives. Cell viability was counted after 24 h of incubation at 37 °C. LC50 was obtained. While relative cell viability was calculated using sterile PBS-treated cells for both negative controls and experiments, all in triplicate.

Experiment [3] has as its system T. cruzi epimastigote forms. The experiment can be described thus: Cell death profile, 7-AAD / annexin V-PE flow cytometry. In kind it is cell-based, Trypanosoma cruzi. To be noted: 5.164 and 10.329 μM, 24 h. On the procedure:
Epimastigote forms were used to assess the cell death profile using labeling with AxPE and 7-AAD. For data interpretation, the cells were divided into four cell populations: viable cells, with low levels of labeling for both fluorochromes (un-labeled); necrotic cells, labeled only with 7-AAD (7AAD +); apoptotic cells, labeled with annexin V-PE only (/ AxPE +); and doubly labeled late apoptotic cells (7AAD +/AxPE +).
Evaluation of the mechanism by which compound 7 induced cell death was performed using flow cytometry with 7-AAD (7-aminoactinomicyn D) and phycoerythrin-labeled Annexin V (AxPE) as fluorescent markers. 7-AAD is a molecule capable of specifically interleaving into DNA. However, it is not able to penetrate cells with intact membranes. Cells with high 7-AAD labeling are thus considered necrotic due to loss of membrane integrity. Annexin V is a 36 KDa protein that in the presence of calcium ions presents high affinity for phosphatidylserine. Thus, Ax/PE is used to evaluate external phosphatidylserine as a marker of apoptosis.
T. cruzi epimastigote forms were cultured at a density of 10^6 cells/mL in the presence of compound 7 (at concentrations of 5.164 and 10.329 μM) for 24 h in a BOD greenhouse. The cells were then transferred to cytometry tubes, centrifuged at 4000 RPM for 5 min, and washed with PBS once, and then washed twice with binding buffer (pH 7.4; 10 mM HEPES solution; 140 mM NaCl and 2.5 CaCl2 mM). After final centrifugation, the pellet was re-suspended in 100 µl binding buffer, 5 µl 7-AAD (0.5 mg/mL), and 5 µl Ax/PE. […] After 15 min of incubation in the dark, 400 µl of binding buffer was added to each tube and cells were analyzed on FACSCalibur (BD Biosciences, San José, Califórnia, EUA).
For each tube, a minimum of 10^4 cells were analyzed for quantitation of the percentage of unlabeled, and individually or double labeled 7-AAD and Ax/PE cells. […] Ax/PE labeled cells were read by an FL2 detector (563 at 606 nm, yellow fluorescence), while 7-AAD labeled cells were read at 615 to 645 nm wavelength (red fluorescence, FL3 detector).
For orientation: A flow cytometer gives signals particle by particle.

Experiment [4] deals with T. cruzi epimastigote forms. Kind of experiment: Cytoplasmic reactive oxygen species, DCFH-DA flow cytometry. The class given is cell-based, Trypanosoma cruzi. To be noted: both treated groups (5.164 and 10.329 μM) vs control, 24 h. The protocol:
The increased presence of reactive oxygen species (ROS) in the cytoplasm of compound 7 treated epimastigote cells was analyzed using the 2′,7′-dichlorofluorescein diacetate reagent (DCFH-DA). As a lipophilic molecule, when internalized in cells it is cleaved by cytoplasmic esterase into DCFH (reduced 2′-7′-dichlorofluorescein), and as it is unable to cross membranes DCFH reacts with intra-cytoplasmic ROSs producing DCF (oxidized 2′-7′-dichlorofluorescein). DCF emits green fluorescence, and the fluorescent intensity emitted by the cell is directly proportional to the intra-cytoplasmic ROS concentration.
A concentration of 10^6 epimastigotes/mL were placed in 24-well plates in the presence of BIS (5.164 and 10.329 μM). […] After 24 h of incubation with compound 7, the cells were harvested, centrifuged (2800 RPM for 7 min), washed with PBS twice, and re-suspended in 500 µL PBS. At the end, the cells were analyzed by flow cytometer.
In accordance with Kessler et al. (2013), the level of labeling in each group was assessed by the mean geometric fluorescence intensity. The results obtained were expressed as relative fluorescence intensity using the formula:(1) Relative fluorescence=mTEST/mCONTROL where: • mTEST = geometric mean of the group to be analyzed; • mCONTROL = geometric mean of the control group.

Experiment [5] relates to T. cruzi epimastigote forms. The experiment can be described thus: Mitochondrial transmembrane potential, rhodamine 123 flow cytometry. To be noted: 5.164 and 10.329 μM, 24 h. In kind it is cell-based, Trypanosoma cruzi. The protocol: Mitochondrial transmembrane potential (ΔΨm) was assessed using rhodamine 123 fluorescent dye (Rho123).
Rhodamine 123 (Rho123) is a lipophilic and cationic dye that under normal conditions accumulates in the mitochondrial inter-membrane space. Presenting affinity with hydrogen ions, there is a reduction in the concentration of H^+ ions in the inter-membrane space, which decreases Rho123 accumulation, as illustrated in Figure 5. Changes in ΔΨm can be measured using Rho123, measuring the decrease in green fluorescence.
The compound 7 (5.164 and 10.329 μM) was added to the epimastigotes (10^6 cells) in 24-well plates. At 24 h of incubation, cells were transferred to tubes, centrifuged and washed with PBS. The cells were then re-suspended in 100 µL PBS, and 5 µL of Rho123 solution (200 µg/mL in absolute ethanol) was added to obtain a final concentration of 10 µg/mL. Samples were incubated in the dark for 30 min, washed twice with PBS, and re-suspended in PBS (500 µL/tube). Finally, the samples were analyzed using flow cytometry. Results were evaluated using relative fluorescent intensity, calculated as described in the previous item.

For another experiment, the system named is T. cruzi amastigotes. The arrangement: method as in Lima et al. (2015) [41]. To be noted: ref Lima et al. (2015) [41]; read-out: activity against T. cruzi amastigotes; cited from earlier work.
For the next experiment, the system named is Trypanosoma brucei. The arrangement: method as in Steverding et al. (2016) [47]. To be noted: ref Steverding et al. (2016) [47]; cited from earlier work.
Setting [6] is: Trypanosoma cruzi, 24 h, read-out: Y strain (Epimastigotes) IC50, 24 h incubation.

With `COC(=O)/C=C/c1ccc(O)cc1` [compound 1, (E)-Methyl 3-(4-hydroxyphenyl)acrylate], the IC50 in experiment [1] (Trypanosoma cruzi, 24 h incubation, read-out: Y strain (Epimastigotes) IC50) was 601 ± 249 µM; with LLC-MK2 cells (LLC-MK2, 24 h exposure, MTT) it was more than 561 µM.
For the molecule `CCOC(=O)/C=C/c1ccc(O)cc1` [compound 2], the IC50 was found to be 216 ± 109 µM in experiment [1] (setting [6]) and 443 ± 109 µM in the experiment on LLC-MK2 cells (LLC-MK2, 24 h).
In the case of `CCCOC(=O)/C=C/c1ccc(O)cc1` [compound 3, Propyl p-coumarate], the IC50 in experiment [1] (setting [6]) was determined as 16.8 ± 1.93 µM; in experiment [2] it was 117 ± 59.1 µM; in the experiment on LLC-MK2 cells (LLC-MK2, 24 h), 446 ± 187 µM. The “trypanocidal activity (in words)” value in experiment [1] is on record as “good trypanocidal activity”.
For `CC(C)OC(=O)/C=C/c1ccc(O)cc1` [compound 4], the IC50 in experiment [1] (setting [6]) was 335 ± 54.3 µM; in the experiment with LLC-MK2 cells (LLC-MK2, 24 h), 290 ± 49 µM.
On to `COCCOC(=O)/C=C/c1ccc(O)cc1` [compound 5, 2-methoxyethyl p-coumarate], for which the IC50 in experiment [1] (setting [6]) was 32 ± 5.39 µM; in experiment [2], 360 ± 112 µM; in the experiment with LLC-MK2 cells (LLC-MK2, 24 h) it was more than 450 µM. In experiment [1], the “trypanocidal activity (in words)” value is recorded as “good trypanocidal activity”.
`CCCCOC(=O)/C=C/c1ccc(O)cc1` [compound 6]: the IC50 in experiment [1] (setting [6]) turned out to be 155 ± 33.1 µM; in the experiment with LLC-MK2 cells (LLC-MK2, 24 h), 274 ± 46.8 µM.
`CCCCCOC(=O)/C=C/c1ccc(O)cc1` [compound 7, pentyl p-coumarate]: in experiment [3], the cell death profile entry was “cell death by necrosis”, the “percentage of 7-AAD-labeled cells” value is reported as “increase” and the “percentage of viable cells” value is listed as “reduction”. In experiment [4], the “relative fluorescence (DCF, reactive oxygen species)” value is listed as “increase”. Also, in experiment [1] (setting [6]), the IC50 stood at 5.16 ± 1.28 µM. Also, in experiment [1], the “trypanocidal activity (in words)” value is on record as “good trypanocidal activity”. Besides, in experiment [5], the “rhodamine 123 accumulation (mitochondrial transmembrane potential)” value is reported as “reduction”. For the same molecule, the IC50 in experiment [2] amounted to 61.6 ± 28.6 µM. Moreover, the IC50 in the experiment on LLC-MK2 cells (LLC-MK2, 24 h) amounted to 123 ± 22.6 µM.
For the molecule `CC(C)CCOC(=O)/C=C/c1ccc(O)cc1` [compound 8, isopentyl p-coumarate], the IC50 in experiment [1] (setting [6]) is 13.2 ± 2.56 µM; in experiment [2] it was 111 ± 38.7 µM; in the experiment on LLC-MK2 cells (LLC-MK2, 24 h) it was 120 ± 19.2 µM. The “trypanocidal activity (in words)” value in experiment [1] was “good trypanocidal activity”.
Consider `CCCCCCOC(=O)/C=C/c1ccc(O)cc1` [compound 9], for which the IC50 worked out at 68.9 ± 18.1 µM in experiment [1] (setting [6]) and 131 ± 16.9 µM in the experiment with LLC-MK2 cells (LLC-MK2, 24 h).
In the same order, the values of `CCCCCCCCCCCCOC(=O)/C=C/c1ccc(O)cc1` [compound 10] are 50.6 ± 18.9 µM and 141 ± 15.2 µM.
Regarding `Cc1ccc(COC(=O)/C=C/c2ccc(O)cc2)cc1` [compound 11], the IC50 in experiment [1] (setting [6]) came to 75.5 ± 13.4 µM; in the experiment on LLC-MK2 cells (LLC-MK2, 24 h), 160 ± 97.6 µM. Moreover, the “trypanocidal activity (in words)” value in experiment [1] is “did not show significant trypanocidal activity”.
For `CC(C)c1ccc(COC(=O)/C=C/c2ccc(O)cc2)cc1` [compound 12], the IC50 was determined as 68.9 ± 18.1 µM in experiment [1] (setting [6]); 40.1 ± 10.1 µM in experiment [1] (read-out: Y strain (Epimastigotes) IC50, 24 h incubation); 2.74 µM with LLC-MK2 cells (LLC-MK2, 24 h). Besides, in experiment [1], the “trypanocidal activity (in words)” value is recorded as “did not show significant trypanocidal activity”.
Take `CCOC(=O)/C=C/c1ccc(O)c(O)c1` [ethyl caffeate]: in the experiment with T. cruzi amastigotes, the IC50 was 18.3 µM.
Consider `CC(C)CCOC(=O)/C=C/c1ccc(O)c(O)c1` [isopentyl caffeate], for which the “effect on parasite growth” value with Trypanosoma brucei is “inhibited parasite growth”.
